From patent US11981658B2, “Substituted aminopyridine compounds as EGFR inhibitors” (YUHAN CORPORATION, priority 2021, dated 2024)
Like-named read-outs stand apart in the source and are kept apart here.

Legend:
[1] = target: EGFR wildtype (WT) (Homo sapiens, UniProt P00533); assay: Biochemical EGFR kinase inhibition assay (Lance Ultra TR-FRET), wildtype
In short: (§1)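 Kinase activity is measured by TR-FRET phosphopeptide detection. Compounds span 0.003 μM to 10 μM; the 1 h reaction at room temperature is quenched with EDTA, then labelled antibody (2 nM) is incubated 60 min before reading.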

[2] = target: EGFR Del19/C797S (Homo sapiens, UniProt P00533, C797S/DEL746-750); assay: Biochemical EGFR kinase inhibition assay (Lance Ultra TR-FRET), double mutant del19/C797S
Sequence of EGFR Del19/C797S (P00533 with tags, fused parts or gaps DEL746-750/C797S): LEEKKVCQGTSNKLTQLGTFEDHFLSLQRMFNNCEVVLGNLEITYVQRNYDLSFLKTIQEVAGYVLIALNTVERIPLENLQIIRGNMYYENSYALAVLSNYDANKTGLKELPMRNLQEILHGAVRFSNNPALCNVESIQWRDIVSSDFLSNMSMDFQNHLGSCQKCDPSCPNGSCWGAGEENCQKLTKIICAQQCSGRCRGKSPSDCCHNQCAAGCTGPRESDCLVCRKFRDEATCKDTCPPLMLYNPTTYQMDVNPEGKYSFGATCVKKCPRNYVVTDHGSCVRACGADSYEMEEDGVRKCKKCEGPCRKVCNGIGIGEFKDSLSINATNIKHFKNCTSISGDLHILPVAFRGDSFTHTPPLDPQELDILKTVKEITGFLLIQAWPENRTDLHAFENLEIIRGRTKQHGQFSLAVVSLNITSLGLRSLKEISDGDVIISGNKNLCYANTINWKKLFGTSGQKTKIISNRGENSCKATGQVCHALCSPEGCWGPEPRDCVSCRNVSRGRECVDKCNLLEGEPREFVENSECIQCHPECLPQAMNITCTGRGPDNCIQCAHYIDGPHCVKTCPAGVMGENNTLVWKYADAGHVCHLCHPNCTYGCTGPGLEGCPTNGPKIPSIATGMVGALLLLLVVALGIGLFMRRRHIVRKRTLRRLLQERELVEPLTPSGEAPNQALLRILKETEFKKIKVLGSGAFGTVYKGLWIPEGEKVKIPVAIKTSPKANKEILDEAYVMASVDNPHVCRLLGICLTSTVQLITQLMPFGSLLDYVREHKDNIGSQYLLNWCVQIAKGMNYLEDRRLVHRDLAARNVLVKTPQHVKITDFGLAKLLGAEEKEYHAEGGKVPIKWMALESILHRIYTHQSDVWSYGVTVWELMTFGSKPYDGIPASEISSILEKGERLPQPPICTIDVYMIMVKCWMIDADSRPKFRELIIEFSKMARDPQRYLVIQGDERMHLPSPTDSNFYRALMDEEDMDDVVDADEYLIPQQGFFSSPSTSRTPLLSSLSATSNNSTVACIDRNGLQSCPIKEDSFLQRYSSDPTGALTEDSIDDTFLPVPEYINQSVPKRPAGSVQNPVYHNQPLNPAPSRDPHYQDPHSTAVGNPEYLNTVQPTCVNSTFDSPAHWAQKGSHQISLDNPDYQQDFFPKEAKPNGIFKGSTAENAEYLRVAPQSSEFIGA
In short: as §1

[3] = target: EGFR L858R/T790M/C797S (Homo sapiens, UniProt P00533, C797S/L858R/T790M); assay: Biochemical EGFR kinase inhibition assay (Lance Ultra TR-FRET), triple mutant L858R/T790M/C797S
Sequence of EGFR L858R/T790M/C797S (P00533 25-1210 T790M/C797S/L858R): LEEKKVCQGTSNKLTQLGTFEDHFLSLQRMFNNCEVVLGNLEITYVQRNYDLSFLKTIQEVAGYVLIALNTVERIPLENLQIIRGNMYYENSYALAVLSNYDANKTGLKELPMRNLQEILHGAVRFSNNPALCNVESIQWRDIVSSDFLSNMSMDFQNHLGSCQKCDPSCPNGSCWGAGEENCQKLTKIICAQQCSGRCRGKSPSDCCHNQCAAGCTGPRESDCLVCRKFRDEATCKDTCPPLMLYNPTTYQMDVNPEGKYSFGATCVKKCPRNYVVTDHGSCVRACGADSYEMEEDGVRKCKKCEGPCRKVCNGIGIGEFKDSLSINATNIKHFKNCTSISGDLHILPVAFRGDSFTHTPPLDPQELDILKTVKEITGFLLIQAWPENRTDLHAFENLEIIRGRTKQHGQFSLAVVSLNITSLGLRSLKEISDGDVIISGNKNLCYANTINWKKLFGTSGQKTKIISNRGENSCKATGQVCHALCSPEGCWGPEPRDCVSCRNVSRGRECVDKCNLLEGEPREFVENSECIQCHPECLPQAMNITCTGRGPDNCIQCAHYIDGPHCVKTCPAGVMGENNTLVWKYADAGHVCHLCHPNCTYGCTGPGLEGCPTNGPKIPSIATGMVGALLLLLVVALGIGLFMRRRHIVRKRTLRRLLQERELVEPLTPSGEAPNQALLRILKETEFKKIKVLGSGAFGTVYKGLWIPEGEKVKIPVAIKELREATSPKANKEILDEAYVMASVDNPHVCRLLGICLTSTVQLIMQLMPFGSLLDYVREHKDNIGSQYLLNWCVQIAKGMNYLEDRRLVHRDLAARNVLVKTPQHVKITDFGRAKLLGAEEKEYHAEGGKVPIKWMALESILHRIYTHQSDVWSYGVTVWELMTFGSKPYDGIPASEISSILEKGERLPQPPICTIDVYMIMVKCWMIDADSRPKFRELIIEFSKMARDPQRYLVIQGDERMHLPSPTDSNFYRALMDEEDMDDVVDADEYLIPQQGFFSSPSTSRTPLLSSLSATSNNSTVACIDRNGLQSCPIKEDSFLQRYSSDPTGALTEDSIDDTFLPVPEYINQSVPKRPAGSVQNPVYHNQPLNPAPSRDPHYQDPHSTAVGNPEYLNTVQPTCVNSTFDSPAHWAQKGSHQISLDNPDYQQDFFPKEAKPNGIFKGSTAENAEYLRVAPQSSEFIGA
In short: as §1

[4] = target: EGFR Del19/T790M/C797S (Homo sapiens, UniProt P00533, C797S/DEL746-750/T790M); assay: Biochemical EGFR kinase inhibition assay (Lance Ultra TR-FRET), triple mutant del19/T790M/C797S
In short: as §1

[5] = target: EGFR L858R/C797S (Homo sapiens, UniProt P00533, C797S/L858R); assay: Biochemical EGFR kinase inhibition assay (Lance Ultra TR-FRET), double mutant L858R/C797S
Sequence of EGFR L858R/C797S (P00533 25-1210 C797S/L858R): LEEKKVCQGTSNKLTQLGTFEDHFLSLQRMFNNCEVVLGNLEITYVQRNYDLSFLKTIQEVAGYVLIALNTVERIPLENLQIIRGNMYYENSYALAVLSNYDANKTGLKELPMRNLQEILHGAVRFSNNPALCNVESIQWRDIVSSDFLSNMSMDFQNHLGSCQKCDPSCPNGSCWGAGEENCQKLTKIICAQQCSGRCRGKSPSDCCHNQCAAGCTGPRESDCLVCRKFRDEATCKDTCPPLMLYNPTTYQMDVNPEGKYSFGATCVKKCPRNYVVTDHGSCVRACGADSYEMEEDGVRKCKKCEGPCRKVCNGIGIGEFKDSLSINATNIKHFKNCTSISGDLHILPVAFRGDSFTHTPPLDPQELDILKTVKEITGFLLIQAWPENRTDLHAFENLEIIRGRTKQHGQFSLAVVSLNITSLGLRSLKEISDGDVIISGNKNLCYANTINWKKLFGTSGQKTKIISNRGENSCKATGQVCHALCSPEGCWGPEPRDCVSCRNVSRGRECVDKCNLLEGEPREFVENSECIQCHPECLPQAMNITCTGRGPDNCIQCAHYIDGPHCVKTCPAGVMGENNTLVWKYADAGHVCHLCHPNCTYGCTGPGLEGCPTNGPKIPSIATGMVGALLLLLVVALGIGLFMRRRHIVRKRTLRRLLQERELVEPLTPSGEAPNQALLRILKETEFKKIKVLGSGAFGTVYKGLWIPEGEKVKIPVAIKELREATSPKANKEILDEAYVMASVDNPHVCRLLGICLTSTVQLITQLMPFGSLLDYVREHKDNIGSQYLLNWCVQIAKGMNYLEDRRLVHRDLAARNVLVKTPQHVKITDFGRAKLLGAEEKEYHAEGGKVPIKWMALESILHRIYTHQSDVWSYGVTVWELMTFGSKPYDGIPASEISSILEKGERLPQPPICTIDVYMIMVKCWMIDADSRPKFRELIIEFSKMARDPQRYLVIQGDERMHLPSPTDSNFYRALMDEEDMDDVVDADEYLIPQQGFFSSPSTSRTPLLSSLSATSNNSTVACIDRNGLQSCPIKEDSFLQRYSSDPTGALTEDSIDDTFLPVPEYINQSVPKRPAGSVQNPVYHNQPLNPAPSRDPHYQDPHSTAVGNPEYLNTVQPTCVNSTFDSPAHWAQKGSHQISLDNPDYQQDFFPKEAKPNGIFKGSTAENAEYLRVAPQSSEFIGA
In short: as §1

[6] = Km ATP, read-out: IC50 WT (nM) Km ATP
[7] = IC50 Del19/C797S (nM), 100 μM ATP
[8] = Km ATP, read-out: IC50 Del19/C797S (nM) Km ATP
[9] = IC50 L858R/T790M/C797S (nM), 100 μM ATP
[10] = Km ATP, read-out: IC50 L858R/T790M/C797S (nM) Km ATP
[11] = IC50 Del19/T790M/C797S (nM), 100 μM ATP
[12] = Km ATP, read-out: IC50 Del19/T790M/C797S (nM) Km ATP
[13] = IC50 L858R/C797S (nM), 100 μM ATP
[14] = Km ATP, read-out: IC50 L858R/C797S (nM) Km ATP

Sequence of EGFR wildtype (WT) (P00533 25-1210): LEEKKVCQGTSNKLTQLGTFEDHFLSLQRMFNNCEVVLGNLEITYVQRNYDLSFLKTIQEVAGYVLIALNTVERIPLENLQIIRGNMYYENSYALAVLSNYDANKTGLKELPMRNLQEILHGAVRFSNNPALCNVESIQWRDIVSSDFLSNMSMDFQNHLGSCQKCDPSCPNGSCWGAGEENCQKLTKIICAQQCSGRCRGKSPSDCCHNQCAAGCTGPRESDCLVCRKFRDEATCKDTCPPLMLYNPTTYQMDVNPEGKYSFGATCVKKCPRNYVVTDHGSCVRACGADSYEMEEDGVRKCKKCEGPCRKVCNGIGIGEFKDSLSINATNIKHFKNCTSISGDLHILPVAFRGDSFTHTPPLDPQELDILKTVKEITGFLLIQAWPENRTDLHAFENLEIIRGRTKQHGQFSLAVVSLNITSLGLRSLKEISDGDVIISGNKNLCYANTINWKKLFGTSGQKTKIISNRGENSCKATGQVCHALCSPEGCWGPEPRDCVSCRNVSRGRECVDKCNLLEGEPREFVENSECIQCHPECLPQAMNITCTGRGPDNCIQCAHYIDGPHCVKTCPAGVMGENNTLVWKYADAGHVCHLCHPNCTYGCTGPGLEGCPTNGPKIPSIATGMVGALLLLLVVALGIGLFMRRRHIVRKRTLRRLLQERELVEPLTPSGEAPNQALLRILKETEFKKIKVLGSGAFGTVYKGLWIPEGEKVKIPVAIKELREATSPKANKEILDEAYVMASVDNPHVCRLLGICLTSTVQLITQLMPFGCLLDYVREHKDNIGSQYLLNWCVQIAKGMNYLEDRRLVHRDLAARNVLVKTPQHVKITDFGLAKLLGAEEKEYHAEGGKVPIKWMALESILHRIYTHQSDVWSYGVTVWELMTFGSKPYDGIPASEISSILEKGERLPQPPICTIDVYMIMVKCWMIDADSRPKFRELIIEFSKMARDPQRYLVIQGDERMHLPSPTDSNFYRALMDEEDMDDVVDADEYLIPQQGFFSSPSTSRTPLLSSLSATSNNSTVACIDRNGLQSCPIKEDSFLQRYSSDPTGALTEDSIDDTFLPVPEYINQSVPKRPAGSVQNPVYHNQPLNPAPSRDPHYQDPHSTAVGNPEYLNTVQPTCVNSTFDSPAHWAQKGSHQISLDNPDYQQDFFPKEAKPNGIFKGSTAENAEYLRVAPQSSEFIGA

Compound CC1(CO)CCN(c2cc(Nc3ccnc(-c4cnn(S(=O)(=O)C5CC5)c4)n3)ncc2C#Cc2cnn(C3CC3)c2)CC1 [Example 47, (1-(5-((1-Cyclopropyl-1H-pyrazol-4-yl)ethynyl)-2-((2-(1-(cyclopropylsulfonyl)-1H-pyrazol-4-yl)pyrimidin-4-yl)amino)pyridin-4-yl)-4-methylpiperidin-4-yl)methanol] has an IC50 ([1]; IC50 WT (nM), 100 μM ATP) of 1740 nM, an IC50 [1, 6] of 19.6 nM and an IC50 [2, 7] of 1.6 nM. It also gave an IC50 [2, 8] of 2.6 nM, an IC50 [3, 9] of 3.5 nM and an IC50 [3, 10] of 1.4 nM. It also gave an IC50 [4, 11] of 2.8 nM, an IC50 [4, 12] of 2.1 nM and an IC50 [5, 13] of 7.8 nM. It also gave an IC50 [5, 14] of 3.3 nM.
Compound CC1(CO)CCN(c2cc(Nc3ccnc(-c4cnn(S(=O)(=O)C5CC5)c4)n3)ncc2C#Cc2cnn(CC3CC3)c2)CC1 [Example 48, (1-(5-((1-(Cyclopropylmethyl)-1H-pyrazol-4-yl)ethynyl)-2-((2-(1-(cyclopropylsulfonyl)-1H-pyrazol-4-yl)pyrimidin-4-yl)amino)pyridin-4-yl)-4-methylpiperidin-4-yl)methanol] has an IC50 ([1]; IC50 WT (nM), 100 μM ATP) of 2910 nM, an IC50 [1, 6] of 38.2 nM and an IC50 [2, 7] of 2.2 nM. The IC50 [2, 8] was 4.3 nM, the IC50 [3, 9] was 9.1 nM and the IC50 [3, 10] was 2.3 nM. It also gave an IC50 [4, 11] of 5.3 nM, an IC50 [4, 12] of 4 nM and an IC50 [5, 13] of 15.9 nM. For the same compound, the IC50 [5, 14] was 7.2 nM.
Work on CC1(CO)CCN(c2cc(Nc3ccnc(-c4cnn(S(=O)(=O)C5CC5)c4)n3)ncc2C#Cc2cnn(CC(F)F)c2)CC1 [Example 49, (1-(2-((2-(1-(Cyclopropylsulfonyl)-1H-pyrazol-4-yl)pyrimidin-4-yl)amino)-5-((1-(2,2-difluoroethyl)-1H-pyrazol-4-yl)ethynyl)pyridin-4-yl)-4-methylpiperidin-4-yl)methanol] yielded an IC50 ([1]; IC50 WT (nM), 100 μM ATP) of 1260 nM, an IC50 [1, 6] of 14.3 nM and an IC50 [2, 7] of 0.9 nM. It also gave an IC50 [2, 8] of 2.1 nM, an IC50 [3, 9] of 2.9 nM and an IC50 [3, 10] of 1.1 nM. For the same compound, the IC50 [4, 11] was 1.8 nM, the IC50 [4, 12] was 1.8 nM and the IC50 [5, 13] was 7.2 nM. The IC50 [5, 14] was 2.8 nM.
CN(C)Cc1ccc(CNc2cc(Nc3ccnc(-c4cnn(S(=O)(=O)C5CC5)c4)n3)ncc2C#Cc2cnn(C)c2)cc1 [Example 50, N^2-(2-(1-(Cyclopropylsulfonyl)-1H-pyrazol-4-yl)pyrimidin-4-yl)-N^4-(4-((dimethylamino)methyl)benzyl)-5-((1-methyl-1H-pyrazol-4-yl)ethynyl)pyridine-2,4-diamine] was tested, and the IC50 [1, 6] was 362 nM, the IC50 [2, 8] was 128 nM and the IC50 [3, 10] was 4.5 nM. The IC50 [4, 12] was 0.9 nM and the IC50 [5, 14] was 130 nM.
Compound CN(C)Cc1ccc(CNc2cc(Nc3ccnc(-c4cnn(S(=O)(=O)C5CC5)c4)n3)ncc2C#Cc2cnn(CCF)c2)cc1 [Example 51, N^2-(2-(1-(Cyclopropylsulfonyl)-1H-pyrazol-4-yl)pyrimidin-4-yl)-N^4-(4-((dimethylamino)methyl)benzyl)-5-((1-(2-fluoroethyl)-1H-pyrazol-4-yl)ethynyl)pyridine-2,4-diamine] has an IC50 [1, 6] of 262 nM, an IC50 [2, 8] of 68.6 nM and an IC50 [3, 10] of 3.2 nM. It also gave an IC50 [4, 12] of 0.9 nM and an IC50 [5, 14] of 49.1 nM.
With CN(C)Cc1ccc(CNc2cc(Nc3ccnc(-c4cnn(S(=O)(=O)C5CC5)c4)n3)ncc2C#Cc2cnn(CC(F)F)c2)cc1 [Example 52, N^2-(2-(1-(Cyclopropylsulfonyl)-1H-pyrazol-4-yl)pyrimidin-4-yl)-5-((1-(2,2-difluoroethyl)-1H-pyrazol-4-yl)ethynyl)-N^4-(4-((dimethylamino)methyl)benzyl)pyridine-2,4-diamine] the IC50 [1, 6] was 304 nM, the IC50 [2, 8] was 76.9 nM and the IC50 [3, 10] was 3.8 nM. It also gave an IC50 [4, 12] of 1.4 nM and an IC50 [5, 14] of 65.6 nM.
CN(C)C[C@H]1CC[C@H](CNc2cc(Nc3ccnc(-c4cnn(S(=O)(=O)C5CC5)c4)n3)ncc2C#Cc2cnn(C)c2)CC1 [Example 53, N^2-(2-(1-(Cyclopropylsulfonyl)-1H-pyrazol-4-yl)pyrimidin-4-yl)-N^4-(((1r,4r)-4-((dimethylamino)methyl)cyclohexyl)methyl)-5-((1-methyl-1H-pyrazol-4-yl)ethynyl)pyridine-2,4-diamine] gave an IC50 [1, 6] of 142 nM, an IC50 [2, 8] of 5.9 nM and an IC50 [3, 10] of 0.3 nM. It also gave an IC50 [4, 12] of 0.4 nM and an IC50 [5, 14] of 141 nM.
In the case of CN(C)C[C@H]1CC[C@H](COc2cc(Nc3ccnc(-c4cnn(S(=O)(=O)C5CC5)c4)n3)ncc2C#Cc2cnn(C)c2)CC1 [Example 58, 2-(1-(Cyclopropylsulfonyl)-1H-pyrazol-4-yl)-N-(4-(((1r,4r)-4-((dimethylamino)methyl)cyclohexyl)methoxy)-5-((1-methyl-1H-pyrazol-4-yl)ethynyl)pyridin-2-yl)pyrimidin-4-amine], the IC50 ([1]; IC50 WT (nM), 100 μM ATP) was > 10000 nM, the IC50 [1, 6] was 15.1 nM and the IC50 [2, 7] was 2.8 nM. For the same compound, the IC50 [2, 8] was 0.6 nM, the IC50 [3, 9] was 0.5 nM and the IC50 [3, 10] was 0.1 nM. The IC50 [4, 11] was 1.1 nM, the IC50 [4, 12] was 0.3 nM and the IC50 [5, 13] was 24.7 nM. The IC50 [5, 14] was 4.7 nM.
In the case of CC(C)n1cc(C#Cc2cnc(Nc3ccnc(-c4cnn(S(=O)(=O)C5CC5)c4)n3)cc2OC[C@H]2CC[C@H](CN(C)C)CC2)cn1 [Example 59, 2-(1-(Cyclopropylsulfonyl)-1H-pyrazol-4-yl)-N-(4-(((1r,4r)-4-((dimethylamino)methyl)cyclohexyl)methoxy)-5-((1-isopropyl-1H-pyrazol-4-yl)ethynyl)pyridin-2-yl)pyrimidin-4-amine], the IC50 ([1]; IC50 WT (nM), 100 μM ATP) was > 10000 nM, the IC50 [1, 6] was 19.2 nM and the IC50 [2, 7] was 2.6 nM. The IC50 [2, 8] was 1.1 nM, the IC50 [3, 9] was 0.7 nM and the IC50 [3, 10] was 0.1 nM. It also gave an IC50 [4, 11] of 1.4 nM, an IC50 [4, 12] of 0.6 nM and an IC50 [5, 14] of 1.7 nM.
In the case of CN(C)C[C@H]1CC[C@H](COc2cc(Nc3ccnc(-c4cnn(S(=O)(=O)C5CC5)c4)n3)ncc2C#Cc2cnn(C3CC3)c2)CC1 [Example 60, N-(5-((1-Cyclopropyl-1H-pyrazol-4-yl)ethynyl)-4-(((1r,4r)-4-((dimethylamino)methyl)cyclohexyl)methoxy)pyridin-2-yl)-2-(1-(cyclopropylsulfonyl)-1H-pyrazol-4-yl)pyrimidin-4-amine], the IC50 [1, 6] was 8.8 nM, the IC50 [2, 8] was 0.4 nM and the IC50 [3, 10] was 0.1 nM. It also gave an IC50 [4, 12] of 0.5 nM and an IC50 [5, 14] of 2.6 nM.
With CN(C)C[C@H]1CC[C@H](COc2cc(Nc3ccnc(-c4cnn(S(=O)(=O)C5CC5)c4)n3)ncc2C#Cc2cnn(CCF)c2)CC1 [Example 61, 2-(1-(Cyclopropylsulfonyl)-1H-pyrazol-4-yl)-N-(4-(((1r,4r)-4-((dimethylamino)methyl)cyclohexyl)methoxy)-5-((1-(2-fluoroethyl)-1H-pyrazol-4-yl)ethynyl)pyridin-2-yl)pyrimidin-4-amine] the IC50 [1, 6] was 4.2 nM, the IC50 [2, 8] was 0.5 nM and the IC50 [3, 10] was 0.1 nM. It also gave an IC50 [4, 12] of 0.5 nM and an IC50 [5, 14] of 3.1 nM.
CN(C)C[C@H]1CC[C@H](COc2cc(Nc3ccnc(-c4cnn(S(=O)(=O)C5CC5)c4)n3)ncc2C#Cc2cccnc2)CC1 [Example 62, 2-(1-(Cyclopropylsulfonyl)-1H-pyrazol-4-yl)-N-(4-(((1r,4r)-4-((dimethylamino)methyl)cyclohexyl)methoxy)-5-(pyridin-3-ylethynyl)pyridin-2-yl)pyrimidin-4-amine] was tested, and the IC50 [1, 6] was 7.9 nM, the IC50 [2, 8] was 0.4 nM and the IC50 [3, 10] was 0.1 nM. The IC50 [4, 12] was 0.2 nM and the IC50 [5, 14] was 4.9 nM.
Cn1cc(C#Cc2cnc(Nc3ccnc(-c4cnn(S(=O)(=O)C5CC5)c4)n3)cc2N2CCC(NS(C)(=O)=O)CC2)cn1 [Example 63, N-(1-(2-((2-(1-(Cyclopropylsulfonyl)-1H-pyrazol-4-yl)pyrimidin-4-yl)amino)-5-((1-methyl-1H-pyrazol-4-yl)ethynyl)pyridin-4-yl)piperidin-4-yl)methanesulfonamide] was tested, and the IC50 ([1]; IC50 WT (nM), 100 μM ATP) was > 10000 nM, the IC50 [2, 7] was 23.1 nM and the IC50 [3, 9] was 2.4 nM. The IC50 [4, 11] was 1.2 nM and the IC50 [5, 13] was 83.4 nM.
CC(C)NC1CCN(c2cc(Nc3ccnc(-c4cnn(S(=O)(=O)C5CC5)c4)n3)ncc2C#Cc2cnn(C)c2)CC1 [Example 64, 2-(1-(Cyclopropylsulfonyl)-1H-pyrazol-4-yl)-N-(4-(4-(isopropylamino)piperidin-1-yl)-5-((1-methyl-1H-pyrazol-4-yl)ethynyl)pyridin-2-yl)pyrimidin-4-amine] was tested, and the IC50 ([1]; IC50 WT (nM), 100 μM ATP) was > 10000 nM, the IC50 [2, 7] was 88.3 nM and the IC50 [3, 9] was 2 nM. For the same compound, the IC50 [4, 11] was 1 nM and the IC50 [5, 13] was 306 nM.
Cn1cc(C#Cc2cnc(Nc3ccnc(-c4cnn(S(=O)(=O)C5CC5)c4)n3)cc2N2CCC(C(F)(F)F)CC2)cn1 [Example 65, 2-(1-(Cyclopropylsulfonyl)-1H-pyrazol-4-yl)-N-(5-((1-methyl-1H-pyrazol-4-yl)ethynyl)-4-(4-(trifluoromethyl)piperidin-1-yl)pyridin-2-yl)pyrimidin-4-amine] was tested, and the IC50 ([1]; IC50 WT (nM), 100 μM ATP) was > 10000 nM, the IC50 [2, 7] was 338 nM and the IC50 [3, 9] was 39.2 nM. The IC50 [4, 11] was 8.2 nM and the IC50 [5, 13] was 604 nM.
In the case of Cn1cc(C#Cc2cnc(Nc3ccnc(-c4cnn(S(=O)(=O)C5CC5)c4)n3)cc2N2CCC(F)(C(F)(F)F)CC2)cn1 [Example 66, 2-(1-(Cyclopropylsulfonyl)-1H-pyrazol-4-yl)-N-(4-(4-fluoro-4-(trifluoromethyl)piperidin-1-yl)-5-((1-methyl-1H-pyrazol-4-yl)ethynyl)pyridin-2-yl)pyrimidin-4-amine], the IC50 ([1]; IC50 WT (nM), 100 μM ATP) was > 10000 nM, the IC50 [2, 7] was 114 nM and the IC50 [3, 9] was 31.1 nM. The IC50 [4, 11] was 9 nM and the IC50 [5, 13] was 350 nM.
